Here are results for three compounds from patent US20140148498A1, “METHODS AND COMPOSITIONS FOR THE TREATMENT OF MARFAN SYNDROME AND ASSOCIATED DISORDERS” (THE JOHNS HOPKINS UNIVERSITY, priority 2011, published 2014).

The structures appear in SMILES notation. Entries after “also recorded” stand apart in the source; their conditions may differ.

Assay [1] relates to Fbn1^C1039G/+ mice. Kind of assay: Aortic wall architecture score (VVG staining). The class given is in vivo. On the procedure:
Latex-infused ascending aortas were transected just above the level of the aortic valve, and 2-3 mm transverse sections were mounted in 4% agar prior to paraffin fixation. Five micrometer aortic sections underwent Verhoeff-van Giesen (VVG) staining and were imaged at 40× magnification, using a Nikon Eclipse E400 microscope. Wall thickness of the aortic media was measured by a single blinded observer at 16 different locations around the most proximal ascending aortic ring and averaged. Wall architecture of 4 representative sections for each mouse was assessed by the same 3 blinded observers and graded on an arbitrary scale of 1 (indicating no breaks in the elastic fiber) to 5 (indicating diffuse fragmentation), and the results were averaged. Elastic fiber content was quantified in four separate representative images of each section of the most proximal ascending aorta by a single blinded observer, using NIS Elements Advanced Research (Nikon, Japan). The aortic media and the elastic fibers were individually outlined and their areas calculated. The respective areas were averaged from all the images of a given aortic section and the ratio of elastic fiber content to total aortic media was determined. Individual lobes of the lungs were mounted in 4% agar and fixed in paraffin. Five micrometer lung sections underwent hematoxylin and eosin staining and were imaged at 10× magnification, using a Nikon Eclipse E400 microscope. Five fields were analyzed for each lobe of each lung by a single blinded observer, and a mean linear intercept was calculated using a previously described method (J. P. Habashi et al., Science 312, 117 (2006); and E. R. Neptune et al., Nat. Genet. 33, 407 (2003)).

The test system of assay [2] is Fbn1^C1039G/+ mice. Briefly: Systolic blood pressure by tail cuff. The class given is in vivo. To be noted: compared to placebo-treated animals, FIG. 8. On the procedure: (§1) Mice were started on medication at 8 weeks of age and continued for 7 months. Losartan was dissolved in drinking water and filtered to reach a concentration of 0.6 g/L, giving an estimated daily dose of 40-60 mg/kg/day. Enalapril was dissolved in drinking water and filtered to reach a final concentration of 0.15 g/L, giving an estimated daily dose of 10-15 mg/kg/day. […] Spironolactone was dissolved in drinking water and filtered to give an estimated dose of 20 mg/kg/day, a dose previously shown to have in-vivo phenotypic benefit in cardiovascular disease states (S. Sakurabayashi-Kitade et al., Atherosclerosis 206, 54 (2009)). Placebo-treated animals received regular drinking water. Blood pressures were analyzed by taking 20 tail cuff blood pressures per day over 5 days in each mouse to habituate the mice to the tail cuff pressure system, and the blood pressures obtained on the last day were averaged. At least 4 mice for each treatment group were analyzed.

The test system of assay [3] is Fbn1^C1039G/+ mice. Briefly: Aortic root growth by echocardiography, 7 months of treatment (Examples 3-5). The class given is in vivo. To be noted: for Final absolute aortic root diameter: 7 months of treatment; for Aortic root growth over 7 months of treatment: versus placebo, drug in drinking water from 8 weeks of age. On the procedure:
A head-to-head comparison of ACEi versus ARBs was performed. Fbn1^C1039G/+ mice and WT littermates were treated with hemodynamically equivalent doses (FIG. 8) of either the ACEi enalapril (10 to 15 mg/kg of body weight per day) or the ARB losartan (40 to 60 mg/kg per day) (R. D. Patten et al., Clin. Sci 104, 109 (2003)), beginning at 8 weeks of age, and were assessed with serial echocardiograms. […] It is noteworthy that losartan reduced aortic root growth in Fbn1^C1039G/+ mice, but had no effect in WT littermates (P=0.27). […] Whether AT2 signaling is needed to achieve losartan's full therapeutic benefit was assessed. AT2KO:Fbn1^C1039G/+ mice were treated with losartan from 8 weeks of age and followed by serial echocardiography until they were killed at 9 months of age (FIG. 2C).
(§2) All mice were cared for under strict compliance with the Animal Care and Use Committee of the Johns Hopkins University School of Medicine. The Fbn1^C1039G/+ and AT2KO lines were maintained n a pure C57BL/6 background (backcrossed for greater than 9 generations), allowing for valid comparisons. In order to further accommodate the potential for temporal- or background-specified variation, all comparisons were made between contemporary littermates when possible. The AT21C0 mice were obtained as a generous gift from Dr. Inagami (T. Ichiki et al., Nature 377, 748 (1995)). The Agtr2 gene resides on the X chromosome and therefore we used either male mice carrying the mutated allele (who are hemizygous) or homozygous females, both of which have been previously shown to be functionally null for the AT2 receptor (T. Ichiki et al., Nature 377, 748 (1995)). Mice were sacrificed with an inhalation overdose of halothane (Sigma-Aldrich, St. Louis). Mice underwent immediate laparotomy, descending abdominal aortic transection, and PBS (pH 7.4) was infused through the right and left ventricles to flush out the blood. Mice that were analyzed for Western Blot analysis had their proximal ascending aortas (root to right brachiocephalic trunk) immediately dissected out, flash frozen in liquid nitrogen and stored at −80d until further processing. Mice that were analyzed for aortic histology had latex injected under low pressure into the left ventricular apex until it was visible in the descending abdominal aorta. Mice that were analyzed for lung histology had their trachea intubated with a 20-gauge blunted needle, and 0.5% agar was infused under a low and constant pressure to gradually inflate the lungs. The trachea was then tied-off using vicryl and the needle was removed. Mice were fixed for 24 hours in 10% buffered formalin, after which the heart, aorta and lungs were removed and stored in 70% ethanol.
as §1
Nair hair removal cream was used on all mice the day prior to echocardiograms. All echocardiograms were performed on awake, unsedated mice using the Visualsonics Vevo 660 V1.3.6 imaging system and a 30 MHz transducer. Mice were imaged at baseline, 1 month after treatment and then every two months until the time of sacrifice. […]

Another assay relates to ERK1/2. Kind of assay: Western blot of aortic root and proximal ascending aorta: ERK1/2 activation (Examples 4-5). The class given is in vivo, mice. Conditions: Fbn1^C1039G/+ mice, FIG. 10B.
Text: as §2, with “The trachea was then tied-off using vicryl and the needle was removed. Mice were fixed for 24 hours in 10% buffered formalin, after which the heart, aorta and lungs were removed and stored in 70% ethanol.” left out
(§3) Mouse aortic root and ascending aortas (aortic root excluding the aortic valve to origin of right brachiocephalic trunk) were harvested, snap-frozen in liquid nitrogen and stored at −80° C. until processed. […] Equal protein loading of samples was determined by a protein assay (BioRad, CA), and confirmed by probing with antibodies against β-Actin or GAPDH (Sigma, Mo.). […]
(A western blot detects proteins with antibodies after separation by electrophoresis.)

The next assay relates to p38. Briefly: Western blot of proximal ascending aorta: p38 activation (Examples 4-5). The class given is in vivo, mice. Conditions: Fbn1^C1039G/+ mice, FIG. 13.
Text: as §2, with “The trachea was then tied-off using vicryl and the needle was removed. Mice were fixed for 24 hours in 10% buffered formalin, after which the heart, aorta and lungs were removed and stored in 70% ethanol.” left out
as §3

In a further assay the test system is JNK1. Kind of assay: Western blot of proximal ascending aorta: JNK1 activation (Examples 4-5). To be noted: Fbn1^C1039G/+ mice, FIG. 13. The class given is in vivo, mice.
Text: as §2, with “The trachea was then tied-off using vicryl and the needle was removed. Mice were fixed for 24 hours in 10% buffered formalin, after which the heart, aorta and lungs were removed and stored in 70% ethanol.” left out
as §3

For another assay, the system named is Smad2. Briefly: Western blot of aortic root and proximal ascending aorta: Smad2 activation (Examples 4-5). Format: in vivo, mice. Conditions: Fbn1^C1039G/+ mice, FIG. 10B.
Text: as §2
Mouse aortic root and ascending aortas (aortic root excluding the aortic valve to origin of right brachiocephalic trunk) were harvested, snap-frozen in liquid nitrogen and stored at −80° C. until processed. Protein was extracted using the reagents and protocol from a Total Protein Extraction Kit containing protease inhibitor and Protein Phosphatase Inhibitor Cocktail (Millipore, MA). Aortas were homogenized using a pellet pestle motor (Kimble-Kontes, NJ) as per the extraction kit protocol. […] Equal protein loading of samples was determined by a protein assay (BioRad, CA), and confirmed by probing with antibodies against β-Actin or GAPDH (Sigma, Mo.). […] Blots were then washed in PBS-T, developed using SuperSignalWest HRP substrate (Pierce Scientific, IL), exposed to BioMax Scientific Imaging Film (Sigma, Mo.) and quantified using Imaged analysis software (NIH, MD).

The test system of a further assay is WT mice. Briefly: Aortic root growth by echocardiography, WT mice (Examples 6-8). Format: in vivo. Conditions: 1 mg/kg per day in drinking water, 4 months, FIG. 18. The source says:
(§4) All mice were cared for under strict compliance with the Animal Care and Use Committee of the Johns Hopkins University School of Medicine. The Smad4 haploinsufficient mice were a generous gift from Dr. Chuxia Deng (NIH/NIDDK, Bethesda). The Fbn1^C1039G/+ line was maintained on a C57BL/6 background, allowing for valid comparisons. In order to further accommodate the potential for temporal- or background-specific variation in genetic or pharmacological manipulation experiments, all comparisons were made between contemporary littermates. Mice were checked daily for death and all mice found dead were immediately necropsied to assess for evidence of aortic dissection. Mice were killed with an inhalation overdose of halothane (Sigma-Aldrich, St. Louis). Mice underwent immediate laparotomy, descending abdominal aortic transection, and PBS (pH 7.4) infusion through the left ventricle to flush out the blood. For Western blot analysis, the proximal ascending aorta (root to right brachiocephalic trunk) was removed, flash frozen in liquid nitrogen and stored at −80° C. Following PBS infusion, mice analyzed for aortic histology had latex injected under low pressure into the left ventricular apex until it was visible in the descending abdominal aorta. The mice were then fixed for 24 hours in 10% buffered formalin, after which the heart and aorta were removed and stored in 70% ethanol.
Mouse monoclonal TGFβNAb (1d11; R&D Systems, Minneapolis) was reconstituted in PBS and administered via intraperitoneal injection 3 times a week at a dose of 5 mg/kg. Treatment was initiated at 1 month of age and continued for 2 months. IgG (Zymed Laboratories Inc, San Francisco) was reconstituted in PBS, and administered at a dose of 10 mg/kg as a control. […]
Nair hair removal cream was used on all mice the day prior to echocardiography. […] Three separate measurements of the maximal internal systolic dimension at the sinus of Valsalva and proximal ascending aorta were made, and a mean was calculated. […]

The test system of assay [4] is Fbn1^C1039G/+ mice. Kind of assay: Aortic root and ascending aortic growth by echocardiography (Examples 6-8). The class given is in vivo.
Text: as §4
Mouse monoclonal TGFβNAb (1d11; R&D Systems, Minneapolis) was reconstituted in PBS and administered via intraperitoneal injection 3 times a week at a dose of 5 mg/kg. Treatment was initiated at 1 month of age and continued for 2 months. IgG (Zymed Laboratories Inc, San Francisco) was reconstituted in PBS, and administered at a dose of 10 mg/kg as a control. SP600125 (Sigma-Aldrich, St. Louis) was reconstituted in 10% DMSO dissolved in PBS, and administered twice daily by intraperitoneal injection, at a dose of 30 mg/kg. Treatment was initiated at 1 month of age and continued for 2 months. 10% DMSO dissolved in PBS was administered as a control. RDEA119 was reconstituted in 10% 2-hydroxypropyl-beta-cyclodextrin (Sigma-Aldrich, St. Louis) dissolved in PBS, and administered twice daily by oral gavage at a dose of 25 mg/kg. Treatment was initiated at 2 months of age and continued for 2 months. 10% 2-hydroxypropyl-beta-cyclodextrin dissolved in PBS was administered as a control. Fasudil was dissolved in drinking water, and administered at a dose of 1 mg/kg body weight per day. Treatment was initiated at 2 months of age and continued for 4 months. Drinking water was administered as a control.
Nair hair removal cream was used on all mice the day prior to echocardiography. All echocardiograms were performed on awake, unsedated mice using the Visualsonics Vevo 660 V1.3.6 imaging system and a 30 MHz transducer. The aorta was imaged using a parasternal long axis view. Three separate measurements of the maximal internal systolic dimension at the sinus of Valsalva and proximal ascending aorta were made, and a mean was calculated. All imaging and measurements were performed by a cardiologist who was blinded to genotype and treatment arm. In the TGFβNAb and SP600125 trials, mice were imaged at 1 month (baseline) and 3 months of age, after which they were killed. In the RDEA119 trial, mice were imaged at 2 months (baseline) and 4 months of age, after which they were killed. In the fasudil trial, mice were imaged at 2 months (baseline) and 6 months of age, after which they were killed. Smad4 haploinsufficient mice were imaged at 1 month, and then every 2 months thereafter, until death or sacrifice.

Take `CCOC(=O)[C@H](CCc1ccccc1)N[C@@H](C)C(=O)N1CCC[C@H]1C(=O)O` [enalapril]: the “Aortic wall architecture score” value with Fbn1^C1039G/+ mice [1] (FIG. 9) was “no more effective than placebo”; in the assay on Fbn1^C1039G/+ mice [1] (FIG. 9, listed as Enalapril), “no more beneficial than placebo”. Moreover, the Systolic blood pressure entry in the assay with Fbn1^C1039G/+ mice [2] is “equal reduction in systolic blood pressure”. In addition, the “Final absolute aortic root diameter” value in the assay with Fbn1^C1039G/+ mice [3] (FIG. 2B, mean +/- 2 SEM) is given as 2.18+/−0.18 mm. For the same compound, the results for the “Aortic root growth over 7 months of treatment” value in the assay with Fbn1^C1039G/+ mice [3] and in the assay with Fbn1^C1039G/+ mice [3] (listed as Enalapril) were “marginal (P=0.05) decrease in growth” and “only marginally better than placebo treatment”, respectively. The ERK1/2 activation entry with ERK1/2 is recorded as “no more effective than placebo; also recorded: failed to reduce ERK1/2 activation”. In addition, the p38 activation result with p38 was “do not affect p38 activation; also recorded: neither had any effect”. Besides, the JNK1 activation entry in the assay on JNK1 was “small reduction in JNK1 activation; also recorded: modest reduction in JNK1 activation”. The Smad2 activation entry in the assay with Smad2 is reported as “decreased”; in the assay with Smad2 (listed as Enalapril) it was “significantly more than losartan”.

For the compound `O=S(=O)(c1cccc2cnccc12)N1CCCNCC1` [fasudil], the “Absolute final aortic root diameter” value in the assay on WT mice is 1.73+/−0.05; in the assay on Fbn1^C1039G/+ mice [4] (1 mg/kg per day in drinking water, 4 months, FIG. 18), 2.40+/−0.16. Further, in the assay on Fbn1^C1039G/+ mice [4] (fasudil trial), the “Aortic root growth over 4 months” value was “lack of rescue of aortic root growth; also recorded: failed to attenuate aortic root growth”.

In the case of `CC(=O)S[C@@H]1CC2=CC(=O)CC[C@]2(C)[C@H]2CC[C@@]3(C)[C@@H](CC[C@@]34CCC(=O)O4)[C@H]12` [spironolactone], in the assay on Fbn1^C1039G/+ mice [3] (FIG. 15, mean +/- 2 SEM), the “Final absolute aortic root diameter” value is recorded as 2.19+/−0.19. In addition, the “Aortic root growth over 7 months of treatment” value in the assay with Fbn1^C1039G/+ mice [3] is recorded as “no significant difference; also recorded: no significant inhibition of aortic root growth”.
